Where two headings read alike, the source gives them in different places.

A short description of series [1]: Two-component stapling: SNAr of two Cys thiolates (C-S bonds) on para-C-F of 5,10,15,20-tetrakis(pentafluorophenyl)porphyrin (2), 1 equiv; Cs2CO3 8 equiv, TCEP 4 equiv, N2. To be noted: the molecule shown is the open-chain precursor, DMSO (dry), 3.3 mM, 25.0 °C, 2.0 h.
For series [2] the following is noted: the molecule shown is the open-chain precursor; 42-membered ring.

For `CC[C@H](C)[C@H](NC(=O)[C@H](CCCCN)NC(=O)CNC(=O)[C@H](CC(C)C)NC(=O)[C@H](CC(C)C)NC(=O)[C@H](Cc1ccc(O)cc1)NC(=O)CNC(=O)[C@H](C)N)C(=O)N[C@@H](CC(N)=O)C(=O)N[C@@H](CC(C)C)C(=O)N[C@@H](CCCCN)C(=O)N[C@@H](C)C(=O)N[C@@H](CSc1c(F)c(F)c(-c2c3nc(c(-c4c(F)c(F)c(F)c(F)c4F)c4ccc([nH]4)c(-c4c(F)c(F)c(F)c(F)c4F)c4nc(c(-c5c(F)c(F)c(F)c(F)c5F)c5ccc2[nH]5)C=C4)C=C3)c(F)c1F)C(=O)N[C@@H](C)C(=O)N[C@@H](C)C(=O)N[C@@H](CC(C)C)C(=O)N[C@@H](C)C(=O)N[C@@H](CCCCN)C(=O)N[C@@H](CCCCN)C(=O)N[C@@H](CS)C(=O)N[C@@H](CC(C)C)C(N)=O`, in series [1] (39-membered ring), the ring closure, conversion by HPLC came to 72%.

Regarding `C[C@H](N)C(=O)N[C@@H](CSc1c(F)c(F)c(-c2c3nc(c(-c4c(F)c(F)c(F)c(F)c4F)c4ccc([nH]4)c(-c4c(F)c(F)c(F)c(F)c4F)c4nc(c(-c5c(F)c(F)c(F)c(F)c5F)c5ccc2[nH]5)C=C4)C=C3)c(F)c1F)C(=O)N[C@@H](C)C(=O)N[C@@H](CS)C(=O)NCC(N)=O` [H-Ala-Cys-Ala-Cys-Gly-NH2], the ring closure, conversion by HPLC in series [1] (24-membered ring) was found to be 6%.

With `C[C@H](N)C(=O)N[C@@H](CSc1c(F)c(F)c(-c2c3nc(c(-c4c(F)c(F)c(F)c(F)c4F)c4ccc([nH]4)c(-c4c(F)c(F)c(F)c(F)c4F)c4nc(c(-c5c(F)c(F)c(F)c(F)c5F)c5ccc2[nH]5)C=C4)C=C3)c(F)c1F)C(=O)N[C@@H](C)C(=O)N[C@H](C(=O)NCC(=O)N[C@@H](CO)C(=O)N[C@H](C(=O)N[C@@H](CCC(N)=O)C(=O)N[C@@H](Cc1c[nH]cn1)C(=O)N[C@@H](CCC(N)=O)C(=O)N[C@@H](C)C(=O)N[C@@H](CS)C(=O)NCC(N)=O)[C@@H](C)O)[C@@H](C)O` [H-Ala-Cys-Ala-Thr-Gly-Ser-Thr-Gln-His-Gln-Ala-Cys-Gly-NH2], the ring closure, conversion by HPLC in series [1] (48-membered ring) was 35%.

In the case of `C[C@H](N)C(=O)N[C@@H](CSc1c(F)c(F)c(-c2c3nc(c(-c4c(F)c(F)c(F)c(F)c4F)c4ccc([nH]4)c(-c4c(F)c(F)c(F)c(F)c4F)c4nc(c(-c5c(F)c(F)c(F)c(F)c5F)c5ccc2[nH]5)C=C4)C=C3)c(F)c1F)C(=O)N[C@@H](C)C(=O)N[C@H](C(=O)NCC(=O)N[C@@H](CO)C(=O)N[C@H](C(=O)N[C@@H](CCC(N)=O)C(=O)N[C@@H](Cc1c[nH]cn1)C(=O)N[C@@H](CCC(N)=O)C(=O)N[C@@H](CS)C(=O)NCC(N)=O)[C@@H](C)O)[C@@H](C)O` [H-Ala-Cys-Ala-Thr-Gly-Ser-Thr-Gln-His-Gln-Cys-Gly-NH2], in series [1] (45-membered ring), the ring closure, conversion by HPLC was determined as 36%.

With `C[C@H](N)C(=O)N[C@@H](CSc1c(F)c(F)c(-c2c3nc(c(-c4c(F)c(F)c(F)c(F)c4F)c4ccc([nH]4)c(-c4c(F)c(F)c(F)c(F)c4F)c4nc(c(-c5c(F)c(F)c(F)c(F)c5F)c5ccc2[nH]5)C=C4)C=C3)c(F)c1F)C(=O)N[C@@H](CS)C(=O)NCC(N)=O` [H-Ala-Cys-Cys-Gly-NH2], the ring closure, conversion by HPLC in series [1] (21-membered ring) came out at 0%.

As to `C[C@H](N)C(=O)N[C@@H](CSc1c(F)c(F)c(-c2c3nc(c(-c4c(F)c(F)c(F)c(F)c4F)c4ccc([nH]4)c(-c4c(F)c(F)c(F)c(F)c4F)c4nc(c(-c5c(F)c(F)c(F)c(F)c5F)c5ccc2[nH]5)C=C4)C=C3)c(F)c1F)C(=O)N[C@@H](CCC(N)=O)C(=O)N[C@@H](Cc1c[nH]cn1)C(=O)N[C@@H](CCC(N)=O)C(=O)N[C@@H](CS)C(=O)NCC(N)=O` [H-Ala-Cys-Gln-His-Gln-Cys-Gly-NH2], in series [1] (30-membered ring), the ring closure, conversion by HPLC stood at 65% and the ring closure, isolated yield turned out to be 39%.

Turning to `C[C@H](N)C(=O)N[C@@H](CSc1c(F)c(F)c(-c2c3nc(c(-c4c(F)c(F)c(F)c(F)c4F)c4ccc([nH]4)c(-c4c(F)c(F)c(F)c(F)c4F)c4nc(c(-c5c(F)c(F)c(F)c(F)c5F)c5ccc2[nH]5)C=C4)C=C3)c(F)c1F)C(=O)N[C@@H](Cc1c[nH]cn1)C(=O)N[C@@H](CS)C(=O)NCC(N)=O` [H-Ala-Cys-His-Cys-Gly-NH2], the ring closure, conversion by HPLC in series [1] (24-membered ring) is 43%.

With `C[C@H](N)C(=O)N[C@@H](CSc1c(F)c(F)c(-c2c3nc(c(-c4c(F)c(F)c(F)c(F)c4F)c4ccc([nH]4)c(-c4c(F)c(F)c(F)c(F)c4F)c4nc(c(-c5c(F)c(F)c(F)c(F)c5F)c5ccc2[nH]5)C=C4)C=C3)c(F)c1F)C(=O)N[C@@H](Cc1c[nH]cn1)C(=O)N[C@@H](CCC(N)=O)C(=O)N[C@@H](CS)C(=O)NCC(N)=O` [H-Ala-Cys-His-Gln-Cys-Gly-NH2], the ring closure, conversion by HPLC in series [1] (27-membered ring) came out at 65%.

For the compound `C[C@H](N)C(=O)N[C@@H](CSc1c(F)c(F)c(-c2c3nc(c(-c4c(F)c(F)c(F)c(F)c4F)c4ccc([nH]4)c(-c4c(F)c(F)c(F)c(F)c4F)c4nc(c(-c5c(F)c(F)c(F)c(F)c5F)c5ccc2[nH]5)C=C4)C=C3)c(F)c1F)C(=O)N[C@@H](CO)C(=O)N[C@H](C(=O)N[C@@H](CCC(N)=O)C(=O)N[C@@H](Cc1c[nH]cn1)C(=O)N[C@@H](CCC(N)=O)C(=O)N[C@@H](CS)C(=O)NCC(N)=O)[C@@H](C)O` [H-Ala-Cys-Ser-Thr-Gln-His-Gln-Cys-Gly-NH2], in series [1] (36-membered ring), the ring closure, conversion by HPLC stood at 56% and the ring closure, isolated yield stood at 24%.

In the case of `C[C@H](N)C(=O)N[C@@H](CSc1c(F)c(F)c(-c2c3nc(c(-c4c(F)c(F)c(F)c(F)c4F)c4ccc([nH]4)c(-c4c(F)c(F)c(F)c(F)c4F)c4nc(c(-c5c(F)c(F)c(F)c(F)c5F)c5ccc2[nH]5)C=C4)C=C3)c(F)c1F)C(=O)N[C@H](C(=O)N[C@@H](CCC(N)=O)C(=O)N[C@@H](Cc1c[nH]cn1)C(=O)N[C@@H](CCC(N)=O)C(=O)N[C@@H](CS)C(=O)NCC(N)=O)[C@@H](C)O` [H-Ala-Cys-Thr-Gln-His-Gln-Cys-Gly-NH2], in series [1] (33-membered ring), the ring closure, conversion by HPLC came out at 65% and the ring closure, isolated yield is 25%.

Consider `C[C@H](N)C(=O)N[C@@H](CSc1c(F)c(F)c(-c2c3nc(c(-c4c(F)c(F)c(F)c(F)c4F)c4ccc([nH]4)c(-c4c(F)c(F)c(F)c(F)c4F)c4nc(c(-c5c(F)c(F)c(F)c(F)c5F)c5ccc2[nH]5)C=C4)C=C3)c(F)c1F)C(=O)N[C@H](C(=O)NCC(=O)N[C@@H](CO)C(=O)N[C@H](C(=O)N[C@@H](CCC(N)=O)C(=O)N[C@@H](Cc1c[nH]cn1)C(=O)N[C@@H](CCC(N)=O)C(=O)N[C@@H](CS)C(=O)NCC(N)=O)[C@@H](C)O)[C@@H](C)O` [H-Ala-Cys-Thr-Gly-Ser-Thr-Gln-His-Gln-Cys-Gly-NH2], for which, in series [1] (42-membered ring), the ring closure, conversion by HPLC came out at 46% and the ring closure, isolated yield was found to be 18%.

Regarding `C[C@H](N)C(=O)N[C@@H](CSc1c(F)c(F)c(-c2c3nc(c(-c4c(F)c(F)c(F)c(F)c4F)c4ccc([nH]4)c(-c4c(F)c(F)c(F)c(F)c4F)c4nc(c(-c5c(F)c(F)c(F)c(F)c5F)c5ccc2[nH]5)C=C4)C=C3)c(F)c1F)C(=O)N[C@H](C(=O)N[C@@H](Cc1c[nH]cn1)C(=O)NCC(=O)N[C@@H](CCC(N)=O)C(=O)N[C@H](C(=O)N[C@@H](CCC(N)=O)C(=O)N[C@@H](CO)C(=O)N[C@@H](CS)C(=O)NCC(N)=O)[C@@H](C)O)[C@@H](C)O` [H-Ala-Cys-Thr-His-Gly-Gln-Thr-Gln-Ser-Cys-Gly-NH2], in series [1] (42-membered ring), the ring closure, conversion by HPLC stood at 47% and the ring closure, isolated yield was determined as 10%.

Consider `C[C@H](N)C(=O)N[C@@H](CSc1c(F)c(F)c(-c2c3nc(c(-c4c(F)c(F)c(F)c(F)c4F)c4ccc([nH]4)c(-c4c(F)c(F)c(F)c(F)c4F)c4nc(c(-c5c(F)c(F)c(F)c(F)c5F)c5ccc2[nH]5)C=C4)C=C3)c(F)c1F)C(=O)N[C@H](C(=O)N[C@@H](CO)C(=O)N[C@H](C(=O)N[C@@H](CCC(N)=O)C(=O)N[C@@H](Cc1c[nH]cn1)C(=O)N[C@@H](CCC(N)=O)C(=O)N[C@@H](CS)C(=O)NCC(N)=O)[C@@H](C)O)[C@@H](C)O` [H-Ala-Cys-Thr-Ser-Thr-Gln-His-Gln-Cys-Gly-NH2], for which the ring closure, conversion by HPLC in series [1] (39-membered ring) came out at 50%.

Consider `CC[C@H](C)[C@H](NC(=O)[C@H](Cc1ccc(O)cc1)NC(=O)CNC(=O)[C@@H](NC(=O)[C@@H](NC(=O)[C@H](CSc1c(F)c(F)c(-c2c3nc(c(-c4c(F)c(F)c(F)c(F)c4F)c4ccc([nH]4)c(-c4c(F)c(F)c(F)c(F)c4F)c4nc(c(-c5c(F)c(F)c(F)c(F)c5F)c5ccc2[nH]5)C=C4)C=C3)c(F)c1F)NC(=O)[C@@H](N)CC(N)=O)C(C)C)C(C)C)C(=O)NCC(=O)N[C@@H](CCC(=O)O)C(=O)N[C@@H](CCCNC(=N)N)C(=O)N[C@@H](CS)C(=O)N[C@@H](CCC(N)=O)C(N)=O` [H-Asn-Cys-Val-Val-Gly-Tyr-Ile-Gly-Glu-Arg-Cys-Gln-NH2], for which the ring closure, conversion by HPLC in series [1] (45-membered ring) is 36%.

On to `CC(C)C[C@H](NC(=O)[C@H](C)NC(=O)[C@@H](NC(=O)[C@H](CCC(=O)O)NC(=O)[C@@H]1CCCN1C(=O)[C@H](C)NC(=O)[C@H](CCCCN)NC(=O)[C@@H](N)CSc1c(F)c(F)c(-c2c3nc(c(-c4c(F)c(F)c(F)c(F)c4F)c4ccc([nH]4)c(-c4c(F)c(F)c(F)c(F)c4F)c4nc(c(-c5c(F)c(F)c(F)c(F)c5F)c5ccc2[nH]5)C=C4)C=C3)c(F)c1F)[C@@H](C)O)C(=O)N[C@@H](CS)C(N)=O` [H-Cys-Lys-Ala-Pro-Glu-Thr-Ala-Leu-Cys-NH2], for which the ring closure, conversion by HPLC in series [2] came to 44%.

The values above are taken from publication PMC10946732.
